Results on eleven compounds are retold here after patent US11986471B2, “Compounds and methods of use” (Tango Therapeutics, Inc., priority 2018, dated 2024).

SMILES strings stand for the structures.

For test [1], the target named is T1, PRMT5 (Homo sapiens, UniProt O14744).
T1 construct: purchased Viva (custom protein)
The test can be described thus: PRMT5 IC50 assay in the presence of SAM as cofactor. The class given is biochemical. The method, boiled down: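 Potency against PRMT5 is compared across cofactor states, where IC50 equals Ki×1.5 with SAM present and Ki×13.5 with MTA present.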

The target of test [2] is T1, PRMT5. The test can be described thus: PRMT5 IC50 assay with no cofactor. The class given is biochemical. The note with it: read-out: No Co-factor IC50. In short, it runs like this:
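For the SAM-containing format, dividing IC50 by 1.5 yields Ki; for the MTA-containing format the divisor is 13.5. A third format without cofactor gives IC50 alone.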

Test [3] deals with T1, PRMT5. The test can be described thus: PRMT5 IC50 assay in the presence of MTA as cofactor. The note with it: for IC50: PRMT5, MTA as cofactor; for SAM/MTA Ratio: ratio between Ki in the presence of SAM and Ki in the presence of MTA. The class given is biochemical. In short, it runs like this: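 IC50 against PRMT5 determined with SAM as cofactor, with no cofactor, and with MTA as cofactor. Ki derived as IC50/1.5 for the SAM assay and IC50/13.5 for the MTA assay; SAM Ki to MTA Ki ratio also reported.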

The test system of a further test is HAP1 MTAP-intact. As to the kind of experiment: SDMA in-cell western assay, HAP1 MTAP-intact cell line. The note with it: Homo sapiens. The class given is cell-based. In short, it runs like this: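 Cells from two matched HAP1 lines, MTAP-null and MTAP-expressing at endogenous levels, are treated with compound. SDMA is then quantified by in-cell western and an IC50 is calculated for each line.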

A further test concerns HAP1 MTAP-deleted. The test can be described thus: SDMA in-cell western assay, HAP1 MTAP-deleted cell line. The class given is cell-based. The settings on record: for IC50: Homo sapiens, HAP1 MTAP-deleted cell line; for MTAP Intact/Deleted Ratio: IC50 ratio HAP1 MTAP-intact / HAP1 MTAP-deleted. In short, it runs like this: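 MTAP-null HAP1 cells, the deleted member of an isogenic pair with endogenously MTAP-expressing HAP1, are treated with compound. SDMA is then quantified by in-cell western and an IC50 is calculated.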

T1 sequence (O14744 whole entry): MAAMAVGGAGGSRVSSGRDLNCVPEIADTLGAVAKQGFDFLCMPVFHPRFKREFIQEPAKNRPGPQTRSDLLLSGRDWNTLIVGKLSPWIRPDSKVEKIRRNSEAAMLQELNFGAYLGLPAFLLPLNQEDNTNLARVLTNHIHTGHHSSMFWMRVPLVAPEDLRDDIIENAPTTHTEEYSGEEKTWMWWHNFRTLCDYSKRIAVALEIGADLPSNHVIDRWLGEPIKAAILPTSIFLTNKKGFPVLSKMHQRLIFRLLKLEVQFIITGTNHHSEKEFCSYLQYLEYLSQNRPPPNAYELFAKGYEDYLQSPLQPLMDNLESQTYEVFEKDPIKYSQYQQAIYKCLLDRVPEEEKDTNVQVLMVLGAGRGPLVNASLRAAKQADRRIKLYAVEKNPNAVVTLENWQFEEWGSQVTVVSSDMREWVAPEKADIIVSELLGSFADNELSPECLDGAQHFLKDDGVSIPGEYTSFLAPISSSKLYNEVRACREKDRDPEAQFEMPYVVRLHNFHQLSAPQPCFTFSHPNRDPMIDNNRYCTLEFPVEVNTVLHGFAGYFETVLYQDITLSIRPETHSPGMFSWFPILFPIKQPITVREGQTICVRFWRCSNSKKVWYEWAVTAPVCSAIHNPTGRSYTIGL
T1 sequence (Q9BQA1 whole entry partner): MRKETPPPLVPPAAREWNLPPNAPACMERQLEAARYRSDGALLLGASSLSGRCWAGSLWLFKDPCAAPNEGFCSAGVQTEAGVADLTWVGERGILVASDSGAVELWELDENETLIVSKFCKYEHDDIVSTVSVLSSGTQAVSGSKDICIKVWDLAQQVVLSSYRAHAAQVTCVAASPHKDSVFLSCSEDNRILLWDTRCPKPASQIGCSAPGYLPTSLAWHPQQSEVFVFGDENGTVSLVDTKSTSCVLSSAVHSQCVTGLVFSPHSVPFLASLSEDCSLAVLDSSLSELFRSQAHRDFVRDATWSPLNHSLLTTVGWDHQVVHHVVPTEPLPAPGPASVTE

A word on the IC50: it is the concentration that inhibits the measured activity by half. Regarding `Cc1ncoc1COc1ccc2c(c1)CCN(C[C@@H](O)CNC(=O)c1cccc(NC3COC3)c1)C2` [Compound 262, (S)—N-(2-hydroxy-3-(6-((4-methyloxazol-5-yl)methoxy)-3N-dihydroisoquinolin-2(1H)-yl)propyl)-3-(oxetan-3-ylamino)benzamide], the IC50 on PRMT5 [1] is 500 to 5000 nM; on PRMT5 [2] it was ≥ 5000 nM; at PRMT5 [3], 50 to 500 nM; with HAP1 MTAP-intact, 1000 to 10000 nM; with HAP1 MTAP-deleted it was 1000 to 10000 nM. In addition, the “SAM/MTA Ratio” value on PRMT5 [3] was “A (a Ki ratio greater than or equal to 10 fold between the Ki in the presence of SAM and the Ki in the presence of MTA)”. Also, the “MTAP Intact/Deleted Ratio” value in the test with HAP1 MTAP-deleted is “C* (an IC50 ratio of less than 3 fold between the IC50 in the HAP1 MTAP-intact cell line and the HAP1 MTAP-deleted cell line)”.
Turning to `Cc1nocc1COc1ccc2c(c1C)CCN(C[C@@H](O)CNC(=O)c1ccnc(NC3CCC3)c1)C2` [Compound 263, 2-(cyclobutylamino)-N-[(2S)-2-hydroxy-3-[5-methyl-6-[(3-methylisoxazol-4-yl)methoxy]-3,4-dihydro-1H-isoquinolin-2-yl]propyl]pyridine-4-carboxamide], the IC50 at PRMT5 [1] was 500 to 5000 nM; at PRMT5 [2], ≥ 5000 nM; at PRMT5 [3], 500 to 5000 nM; in the test with HAP1 MTAP-intact it was ≥ 10000 nM; in the test with HAP1 MTAP-deleted, ≥ 10000 nM. Also, the “SAM/MTA Ratio” value on PRMT5 [3] is “A (a Ki ratio greater than or equal to 10 fold between the Ki in the presence of SAM and the Ki in the presence of MTA)”. Further, the “MTAP Intact/Deleted Ratio” value in the test with HAP1 MTAP-deleted is “C* (an IC50 ratio of less than 3 fold between the IC50 in the HAP1 MTAP-intact cell line and the HAP1 MTAP-deleted cell line)”.
On to `CC(=O)N1CCC(Nc2cc(C(=O)NC[C@H](O)CN3CCc4c(ccc(OCc5conc5C)c4C)C3)ncn2)CC1` [Compound 264, (S)-6-((1-acetylpiperidin-4-yl)amino)-N-(2-hydroxy-3-(5-methyl-6-((3-methylisoxazol-4-yl)methoxy)-3N-dihydroisoquinolin-2(1H)-yl)propyl)pyrimidine-4-carboxamide], for which the IC50 on PRMT5 [1] was 500 to 5000 nM; at PRMT5 [2], ≥ 5000 nM; at PRMT5 [3] it was 50 to 500 nM; in the test with HAP1 MTAP-intact, ≥ 10000 nM; in the test with HAP1 MTAP-deleted it was ≥ 10000 nM. The “SAM/MTA Ratio” value on PRMT5 [3] is “A (a Ki ratio greater than or equal to 10 fold between the Ki in the presence of SAM and the Ki in the presence of MTA)”. Moreover, the “MTAP Intact/Deleted Ratio” value in the test on HAP1 MTAP-deleted was “C* (an IC50 ratio of less than 3 fold between the IC50 in the HAP1 MTAP-intact cell line and the HAP1 MTAP-deleted cell line)”.
As to `Cc1ncoc1COc1cc2c(cc1F)CN(C[C@@H](O)CNC(=O)c1ccnc(NC3CCC3)c1)CC2` [Compound 266, (S)-2-(cyclobutylamino)-N-(3-(7-fluoro-6-((4-methyloxazol-5-yl)methoxy)-3,4-dihydroisoquinolin-2(1H)-yl)-2-hydroxypropyl)isonicotinamide], the IC50 was 50 to 500 nM on PRMT5 [1]; 500 to 5000 nM at PRMT5 [2]; 50 to 500 nM at PRMT5 [3]; 1000 to 10000 nM in the test on HAP1 MTAP-intact; 1000 to 10000 nM in the test on HAP1 MTAP-deleted. The “SAM/MTA Ratio” value on PRMT5 [3] was “A (a Ki ratio greater than or equal to 10 fold between the Ki in the presence of SAM and the Ki in the presence of MTA)”. In addition, the “MTAP Intact/Deleted Ratio” value in the test with HAP1 MTAP-deleted was “B* (an IC50 ratio greater than or equal to 3 fold but lower than 10 fold between the IC50 in the HAP1 MTAP-intact cell line and the HAP1 MTAP-deleted cell line)”.
Turning to `Cc1ncoc1COc1ccc2c(c1Br)CCN(C[C@@H](O)CNC(=O)c1ccnc(NC3CCC3)c1)C2` [Compound 267, N-[(2S)-3-[5-bromo-6-[(4-methyloxazol-5-yl)methoxy]-3,4-dihydro-1H-isoquinolin-2-yl]-2-hydroxy-propyl]-2-(cyclobutylamino)pyridine-4-carboxamide], the IC50 was 500 to 5000 nM at PRMT5 [1]; ≥ 5000 nM on PRMT5 [2]; 50 to 500 nM on PRMT5 [3]; ≥ 10000 nM with HAP1 MTAP-intact; ≥ 10000 nM in the test on HAP1 MTAP-deleted. In the test with HAP1 MTAP-deleted, the “MTAP Intact/Deleted Ratio” value was “C* (an IC50 ratio of less than 3 fold between the IC50 in the HAP1 MTAP-intact cell line and the HAP1 MTAP-deleted cell line)”.
For the compound `Cc1ncoc1COc1ccc2c(c1I)CCN(C[C@@H](O)CNC(=O)c1ccnc(NC3CCC3)c1)C2` [Compound 268, 2-(cyclobutylamino)-N-[(2S)-2-hydroxy-3-[5-iodo-6-[(4-methyloxazol-5-yl)methoxy]-3,4-dihydro-1H-isoquinolin-2-yl]propyl]pyridine-4-carboxamide], the IC50 at PRMT5 [1] is 500 to 5000 nM; at PRMT5 [2], ≥ 5000 nM; at PRMT5 [3], 500 to 5000 nM; with HAP1 MTAP-intact, ≥ 10000 nM; with HAP1 MTAP-deleted it was ≥ 10000 nM. In addition, the “MTAP Intact/Deleted Ratio” value in the test on HAP1 MTAP-deleted is “C* (an IC50 ratio of less than 3 fold between the IC50 in the HAP1 MTAP-intact cell line and the HAP1 MTAP-deleted cell line)”.
`O=C(NC[C@H](O)CN1CCc2cc(OCc3cnco3)ccc2C1)c1cncc(NC2CCC2)c1` [Compound 270, (S)-5-(cyclobutylamino)-N-(2-hydroxy-3-(6-(oxazol-5-ylmethoxy)-3N-dihydroisoquinolin-2(1H)-yl)propyl)nicotinamide]: the IC50 is 50 to 500 nM at PRMT5 [1]; 500 to 5000 nM at PRMT5 [2]; 50 to 500 nM at PRMT5 [3]; < 1000 nM in the test with HAP1 MTAP-intact; < 1000 nM with HAP1 MTAP-deleted. For the same compound, the “SAM/MTA Ratio” value at PRMT5 [3] is “A (a Ki ratio greater than or equal to 10 fold between the Ki in the presence of SAM and the Ki in the presence of MTA)”. Also, the “MTAP Intact/Deleted Ratio” value in the test on HAP1 MTAP-deleted is “C* (an IC50 ratio of less than 3 fold between the IC50 in the HAP1 MTAP-intact cell line and the HAP1 MTAP-deleted cell line)”.
With `Cc1ncoc1COc1ccc2c(c1)CCN(C[C@@H](O)CNC(=O)c1cncc(NC3CCC3)c1)C2` [Compound 271, (S)-5-(cyclobutylamino)-N-(2-hydroxy-3-(6-((4-methyloxazol-5-yl)methoxy)-3N-dihydroisoquinolin-2(1H)-yl)propyl)nicotinamide], the IC50 on PRMT5 [1] was 50 to 500 nM; at PRMT5 [2] it was 500 to 5000 nM; at PRMT5 [3] it was 50 to 500 nM; in the test with HAP1 MTAP-intact, < 1000 nM; with HAP1 MTAP-deleted, < 1000 nM. For the same compound, at PRMT5 [3], the “SAM/MTA Ratio” value was “A (a Ki ratio greater than or equal to 10 fold between the Ki in the presence of SAM and the Ki in the presence of MTA)”. In the test on HAP1 MTAP-deleted, the “MTAP Intact/Deleted Ratio” value is “C* (an IC50 ratio of less than 3 fold between the IC50 in the HAP1 MTAP-intact cell line and the HAP1 MTAP-deleted cell line)”.
`Cc1ncoc1COc1ccc2c(c1C)CCN(C[C@@H](O)CNC(=O)c1ccnc(NC3CCC3)c1)C2` [Compound 272, (S)-2-(cyclobutylamino)-N-(2-hydroxy-3-[5-methyl-6-((4-methyloxazol-5-yl)methoxy)-3N-dihydroisoquinolin-2(1H)-yl)propyl)isonicotinamide]: the IC50 is 50 to 500 nM on PRMT5 [1]; ≥ 5000 nM at PRMT5 [2]; 50 to 500 nM at PRMT5 [3]; ≥ 10000 nM in the test with HAP1 MTAP-intact; 1000 to 10000 nM with HAP1 MTAP-deleted. The “SAM/MTA Ratio” value on PRMT5 [3] was “A (a Ki ratio greater than or equal to 10 fold between the Ki in the presence of SAM and the Ki in the presence of MTA)”. Besides, the “MTAP Intact/Deleted Ratio” value in the test with HAP1 MTAP-deleted was “C* (an IC50 ratio of less than 3 fold between the IC50 in the HAP1 MTAP-intact cell line and the HAP1 MTAP-deleted cell line)”.
With `Cc1c(OCc2cnn[nH]2)ccc2c1CCN(C[C@@H](O)CNC(=O)c1ccnc(NC3CCC3)c1)C2` [Compound 273, (S)—N-(3-(6-((1H-1,2,3-triazol-5-yl)methoxy)-5-methyl-3,4-dihydroisoquinolin-2(1H)-yl)-2-hydroxypropyl)-2-(cyclobutylamino)isonicotinamide], the IC50 on PRMT5 [1] is 500 to 5000 nM; at PRMT5 [2], ≥ 5000 nM; at PRMT5 [3], 500 to 5000 nM; in the test with HAP1 MTAP-intact, ≥ 10000 nM; in the test with HAP1 MTAP-deleted it was 1000 to 10000 nM. In addition, the “MTAP Intact/Deleted Ratio” value in the test with HAP1 MTAP-deleted was “C* (an IC50 ratio of less than 3 fold between the IC50 in the HAP1 MTAP-intact cell line and the HAP1 MTAP-deleted cell line)”.
With `CC(=O)N1CCC(Nc2cc(C(=O)NC[C@H](O)CN3CCc4c(ccc(OCc5ocnc5C)c4C)C3)ncn2)CC1` [Compound 274, (S)-6-((1-acetylpiperidin-4-yl)amino)-N-(2-hydroxy-3-(5-methyl-6-((4-methyloxazol-5-yl)methoxy)-3,4-dihydroisoquinolin-2(1H)-yl)propyl)pyrimidine-4-carboxamide], the IC50 is 50 to 500 nM on PRMT5 [1]; ≥ 5000 nM at PRMT5 [2]; 50 to 500 nM at PRMT5 [3]; ≥ 10000 nM in the test on HAP1 MTAP-intact; 1000 to 10000 nM in the test on HAP1 MTAP-deleted. The “SAM/MTA Ratio” value on PRMT5 [3] was “A (a Ki ratio greater than or equal to 10 fold between the Ki in the presence of SAM and the Ki in the presence of MTA)”. Moreover, the “MTAP Intact/Deleted Ratio” value in the test on HAP1 MTAP-deleted was “C* (an IC50 ratio of less than 3 fold between the IC50 in the HAP1 MTAP-intact cell line and the HAP1 MTAP-deleted cell line)”.
